Data taken from patent US20260315476A1, “COMBINATION TREATMENT METHODS FOR CANCER WITH TP53 MUTATION” (HO'OLA THERAPEUTICS INC., priority 2022, published 2026).
Like-named read-outs stand apart in the source and are kept apart here.

Assays:
[1] = test system: chronic lymphocytic leukemia (CLL); assay: Clinical response rates in CLL (Phase 1/2 study, Parts 1 & 2 and Part 3); format: in vivo, human
Experimental: (§1) In Phase 1 study (Part 1), patients with relapsed/refractory (R/R) mantle cell lymphoma (MCL) and R/R chronic lymphocytic leukemia/small lymphocytic lymphoma (CLL/SLL) were enrolled (CLL n=18, MCL n=12). 2, 4, 8, and 16 mg/kg and 300 mg and 600 mg doses of zilovertamab (formerly known as cirmtuzumab) were evaluated. Ibrutinib was added to the treatment after 1 month at dose of 420 mg for CLL, 560 mg for MCL. The recommended dosing regime was 600 mg of zilovertamab (i.v.) once every 2 weeks by three times and then once every 4 weeks in combination with ibrutinib at approved doses per indication (i.e., 420 mg for CLL, 560 mg for MCL).
(§2) In Phase 2 study, patients were divided into two study groups. In study group 1 (Part 2), patients with R/R CLL, R/R MCL, and marginal zone lymphoma (MZL) were enrolled (CLL n=16, MCL n=21). The patients were treated with the recommended dosing regimen from Phase 1 study, that is, zilovertamab (600 mg) and ibrutinib at approved dose (420 mg CLL, 560 mg MCL and MZL). In study group 2 (Part 3), patients with R/R CLL (n=31) were enrolled and randomly treated with either zilovertamab in combination with ibrutinib or ibrutinib alone.

[2] = test system: mantle cell lymphoma (MCL); assay: Overall survival in MCL; format: in vivo, human; settings: MCL patients
Experimental: as §1, §2

[3] = test system: chronic lymphocytic leukemia (CLL); settings: Byrd 2019, cited from earlier work
[4] = MCL patients treated with BTKi (e.g., ibrutinib) alone; cited from earlier work
[5] = test system: mantle cell lymphoma (MCL); settings: MCL Rule 2017, Relapsed/Refractory, N = 370; cited from earlier work
[6] = Patient disposition and overall tolerability; format: in vivo, human; settings: CLL Part 3
Experimental: as §1, §2

[7] = test system: chronic lymphocytic leukemia (CLL); assay: Overall survival in CLL; format: in vivo, human; settings: CLL patients
Experimental: as §1, §2

[8] = test system: mantle cell lymphoma (MCL); settings: historical, cited from earlier work
[9] = test system: chronic lymphocytic leukemia (CLL); assay: Clinical response rates in CLL (Phase 1/2 study, Parts 1 & 2 and Part 3); format: in vivo, human; settings: Part 3, TN
[10] = Treatment emergent adverse events, CLL Part 3; format: in vivo, human
Experimental: as §2

[11] = test system: mantle cell lymphoma (MCL); settings: historical, cited from earlier work; remark: listed apart in the source
[12] = Rule 2019, No p53 mutation, N = 124
[13] = Rule 2019, p53 mutation, N = 20

## C=CC(=O)N1CCC[C@@H](n2nc(-c3ccc(Oc4ccccc4)cc3)c3c(N)ncnc32)C1 [ibrutinib, 1-[(3R)-3[4-Amino-3-(4-phenoxyphenyl)-1H-pyrazolo[3,4-d]pyrimidin-1-yl]piperidin-1-yl]prop-2-en-1-one]
[1]; CLL Part 3
  Complete Response (CR): 1 (14.3) n (%)
  Median Duration of response (95% CI): NR (8.3, NE)
  Overall Response Rate (ORR): 7 (100.0) n (%)
  Partial Response (PR): 6 (85.7) n (%)
[1]; Part 3, 1 Prior
  CR: 0 n
  PD: 0 n
[1]; Part 3, Overall
  PD: 0 n
[1]; Part 3, ≥3 Prior
  CR: 0 n
  Median DoR: 8.3 months
  PD: 0 n
[2]
  median OS: not reached
[3]; 24 months, 1 or 2 prior systemic therapies
  Landmark PFS: ~82%
[3]; 24 months, >2 prior systemic therapies
  Landmark PFS: ~65%
[3]; 36 months, 1 or 2 prior systemic therapies
  Landmark PFS: ~73%
[3]; 36 months, >2 prior systemic therapies
  Landmark PFS: ~50%
[4]
  Grade 3 or 4 neutrophil decrease: 29%
[5]
  median OS: 25.0
[6]
  Study discontinuation: Death: 0 n
[7]
  median OS: not reached
[8]; Rule 2017, N = 370
  CR: 74 (20.0) n (%)
  ORR: 234 (63.2) n (%)
  PD: 86 (23.2) n (%)
[8]; [12]
  CR: 31 (25.0) n (%)
  ORR: 87 (70.2) n (%)
  PR: 56 (45.2) n (%)
[8]; [13]
  CR: 0 n (%)
  ORR: 11 (55.0) n (%)
  PR: 11 (55.0) n (%)
[9]
  CR: 0 n
  PD: 0 n
[10]
  Atrial Fibrillation, Grades 1-2: 1 (10.0) n (%)
  Atrial Fibrillation, Grades ≥3: 1 (10.0) n (%)
  Atrial Fibrillation, Overall: 2 (20.0) n (%)
  Back pain, Grades 1-2: 2 (20.0) n (%)
  Back pain, Grades ≥3: 0 n (%)
  Back pain, Overall: 2 (20.0) n (%)
  Constipation, Grades 1-2: 3 (30.0) n (%)
  Constipation, Grades ≥3: 0 n (%)
  Constipation, Overall: 3 (30.0) n (%)
  Contusion, Grades 1-2: 3 (30.0) n (%)
  Contusion, Grades ≥3: 0 n (%)
  Contusion, Overall: 3 (30.0) n (%)
  Coronavirus Infection, Grades 1-2: 1 (10.0) n (%)
  Coronavirus Infection, Grades ≥3: 1 (10.0) n (%)
  Coronavirus Infection, Overall: 2 (20.0) n (%)
  Diarrhea, Grades 1-2: 4 (40.0) n (%)
  Diarrhea, Grades ≥3: 0 n (%)
  Diarrhea, Overall: 4 (40.0) n (%)
  Dizziness, Grades 1-2: 3 (30.0) n (%)
  Dizziness, Grades ≥3: 0 n (%)
  Dizziness, Overall: 3 (30.0) n (%)
  Fall, Grades 1-2: 2 (20.0) n (%)
  Fall, Grades ≥3: 0 n (%)
  Fall, Overall: 2 (20.0) n (%)
  Fatigue, Grades 1-2: 2 (20.0) n (%)
  Fatigue, Grades ≥3: 0 n (%)
  Fatigue, Overall: 2 (20.0) n (%)
  Headache, Grades 1-2: 3 (30.0) n (%)
  Headache, Grades ≥3: 1 (10.0) n (%)
  Headache, Overall: 4 (40.0) n (%)
  Hematuria, Grades 1-2: 3 (30.0) n (%)
  Hematuria, Grades ≥3: 0 n (%)
  Hematuria, Overall: 3 (30.0) n (%)
  Hemoglobin decrease, Grades 1-2: 6 (60.0) n (%)
  Hemoglobin decrease, Grades ≥3: 1 (10.0) n (%)
  Hemoglobin decrease, Overall: 7 (70.0) n (%)
  Hypertension, Grades 1-2: 1 (10.0) n (%)
  Hypertension, Grades ≥3: 1 (10.0) n (%)
  Hypertension, Overall: 2 (20.0) n (%)
  Muscle spasms, Grades 1-2: 2 (20.0) n (%)
  Muscle spasms, Grades ≥3: 0 n (%)
  Muscle spasms, Overall: 2 (20.0) n (%)
  Nausea, Grades 1-2: 3 (30.0) n (%)
  Nausea, Grades ≥3: 0 n (%)
  Nausea, Overall: 3 (30.0) n (%)
  Neutrophils decrease, Grades 1-2: 1 (10.0) n (%)
  Neutrophils decrease, Grades ≥3: 2 (20.0) n (%)
  Neutrophils decrease, Overall: 3 (30.0) n (%)
  Platelets decrease, Grades 1-2: 7 (70.0) n (%)
  Platelets decrease, Grades ≥3: 1 (10.0) n (%)
  Platelets decrease, Overall: 8 (80.0) n (%)
  Pneumonia, Grades 1-2: 0 n (%)
  Pneumonia, Grades ≥3: 2 (20.0) n (%)
  Pneumonia, Overall: 2 (20.0) n (%)
  Pruritis, Grades 1-2: 2 (20.0) n (%)
  Pruritis, Grades ≥3: 0 n (%)
  Pruritis, Overall: 2 (20.0) n (%)
  Upper respiratory tract infection, Grades 1-2: 3 (30.0) n (%)
  Upper respiratory tract infection, Grades ≥3: 0 n (%)
  Upper respiratory tract infection, Overall: 3 (30.0) n (%)
[11]; Rule 2019, No p53 Mutation
  M PFS (95% CI): 12.0 (7.1, 15.6)
[11]; Rule 2019, p53 Mutation
  M PFS (95% CI): 4.0 (2.1, 8.3)
